Reference: US9139577B2, “Sulfoximine substituted quinazolines for pharmaceutical compositions” (Boehringer Ingelheim International GmbH, priority 2013, dated 2015)

Assays:
MNK2a = MNK2a (Homo sapiens (Human), UniProt Q9HBH9); assay: MNK2a in vitro kinase assay (Assay 2), ADP-Glo; assay type: biochemical; settings: read-out: MNK2 IC50
MNK1 = MNK1 (Homo sapiens (Human), UniProt Q9BUB5); assay: MNK1 in vitro kinase assay (Assay 3), Z'-LYTE; assay type: biochemical; settings: for inhibition at 1 µM: compound concentration of 1 μM, read-out: MNK1 % INH
Chain of MNK1 (Q9BUB5 other isoform, or with tags, fused parts or gaps): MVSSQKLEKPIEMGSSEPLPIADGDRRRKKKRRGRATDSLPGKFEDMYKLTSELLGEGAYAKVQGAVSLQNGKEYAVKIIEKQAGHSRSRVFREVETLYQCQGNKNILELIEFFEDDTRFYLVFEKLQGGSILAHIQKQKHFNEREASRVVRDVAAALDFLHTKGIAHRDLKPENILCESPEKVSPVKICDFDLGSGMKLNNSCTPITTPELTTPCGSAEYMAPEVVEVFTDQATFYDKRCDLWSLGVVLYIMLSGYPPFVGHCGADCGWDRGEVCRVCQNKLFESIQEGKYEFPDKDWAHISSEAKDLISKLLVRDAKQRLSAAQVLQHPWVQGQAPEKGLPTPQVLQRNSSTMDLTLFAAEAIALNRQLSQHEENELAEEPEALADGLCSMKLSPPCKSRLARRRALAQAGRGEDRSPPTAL
From the text: C. MNK1 In vitro Kinase Assay (Assay 3)
MNK1 Data can be obtained from the MNK1 Z′-LYTE® assay. The MNK1 Z′-LYTE® screening protocol and assay conditions are also described on www.invitrogen.com.
The assay is described as follows:
The Z′-LYTE® biochemical assay employs a fluorescence-based, coupled-enzyme format and is based on the differential sensitivity of phosphorylated and non-phosphorylated peptides to proteolytic cleavage. The peptide substrate is labeled with two fluorophores—one at each end—that make up a FRET pair.
In the primary reaction, the kinase transfers the gamma-phosphate of ATP to a single tyrosine, serine or threonine residue in a synthetic FRET-peptide. In the secondary reaction, a site-specific protease recognizes and cleaves non-phosphorylated FRET-peptides. Phosphorylation of FRET-peptides suppresses cleavage by the Development Reagent. Cleavage disrupts FRET between the donor (i.e., coumarin) and acceptor (i.e., fluorescein) fluorophores on the FRET-peptide, whereas uncleaved, phosphorylated FRET-peptides maintain FRET. A ratiometric method, which calculates the ratio (the Emission Ratio) of donor emission to acceptor emission after excitation of the donor fluorophore at 400 nm, is used to quantitate reaction progress, as shown in the equation below.
ASSAY SETUP: The inhibition of kinase activity of MNK1a was assessed using pre-activated GST-MNK1a. The 2×MKNK1 (MNK1) mixture is prepared in 50 mM HEPES pH 7.5, 0.01% BRIJ-35, 10 mM MgCl2, 4 mM MnCl2, 1 mM EGTA, 2 mM DTT.
The Test Compounds are screened in 1% DMSO (final) in the well.
All Peptide/Kinase Mixtures are diluted to a 2× working concentration in the MNK1 Kinase Buffer.
All ATP Solutions are diluted to a 4× working concentration in Kinase Buffer (50 mM HEPES pH 7.5, 0.01% BRIJ-35, 10 mM MgCl2, 1 mM EGTA).
Development Reagent Solution:
The Development Reagent is diluted in Development Buffer
1. 2.5 μL—4× Test Compound
2. 5 μL—2× Peptide/Kinase Mixture
5. 60-minute Kinase Reaction incubation at room temperature
6. 5 μl—Development Reagent Solution
8. 60-minute Development Reaction incubation at room temperature
9. Read on fluorescence plate reader and analyze the data
The following equations are used for each set of data points: […]
Correction for Background Fluorescence: FlSample-FlTCFl Ctl
% Phosphorylation (% Phos): 1−((Emission Ratio×F100%)−C100%)/((C0%−C100%)+[Emission Ratio×(F100%−F0%)])*100%
% Inhibition: 1−(% PhosSample/% Phos0% Inhibition Ctl)*100
Fl=Fluorescence Intensity
C100%=Average Coumarin emission signal of the 100% Phos. Control
C0%=Average Coumarin emission signal of the 0% Phos. Control
F100%=Average Fluorescein emission signal of the 100% Phos. Control
F0%=Average Fluorescein emission signal of the 0% Phos. Control
SelectScreen® Kinase Profiling Service uses XLfit from IDBS.

Chain of MNK2a (Q9HBH9 whole entry): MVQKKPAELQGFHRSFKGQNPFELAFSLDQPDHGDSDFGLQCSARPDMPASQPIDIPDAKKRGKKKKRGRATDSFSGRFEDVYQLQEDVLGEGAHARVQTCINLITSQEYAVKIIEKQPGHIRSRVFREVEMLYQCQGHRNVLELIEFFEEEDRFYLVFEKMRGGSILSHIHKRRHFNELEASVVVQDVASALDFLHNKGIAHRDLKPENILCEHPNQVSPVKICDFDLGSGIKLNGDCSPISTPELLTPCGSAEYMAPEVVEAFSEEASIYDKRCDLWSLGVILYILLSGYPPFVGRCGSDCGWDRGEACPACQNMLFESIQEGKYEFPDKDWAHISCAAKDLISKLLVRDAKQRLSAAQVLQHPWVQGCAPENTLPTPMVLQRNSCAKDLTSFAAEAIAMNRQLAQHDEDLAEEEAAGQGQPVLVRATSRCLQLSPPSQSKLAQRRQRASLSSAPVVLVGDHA

Row | SMILES | IC50 (MNK2a) [nM] | inhibition at 1 µM (MNK1) [%] | IC50 (MNK1) [nM]
1 | Cc1cc(N=S(C)(C)=O)cc2ncnc(Nc3ccc(F)cc3O[C@H](C)C(=O)N[C@H]3CCOC3)c12 [Example 4.045] | 3 | 99 | –
2 | Cc1cc(N=S(C)(C)=O)cc2ncnc(Nc3ccc(F)cc3O[C@H](C)C(=O)N(C)Cc3ccccc3)c12 [Example 4.012] | 34 | 56 | –
3 | Cc1cc(C(C)Oc2cc(F)ccc2Nc2ncnc3cc(N=S(C)(C)=O)cc(F)c23)on1 (stereo not drawn) [Example 2.002] | 6 | 94 | –
4 | Cc1cc([C@@H](C)Oc2cc(F)ccc2Nc2ncnc3cc(N=S4(=O)CCCC4)cc(Cl)c23)on1 [Example 2.014] | 2 | 99 | –
5 | CS(C)(=O)=Nc1cc(C2CC2)c2c(Nc3ccc(F)cc3OC(CF)CF)ncnc2c1 [Example 1.022] | 3 | 79 | –
6 | Cc1cc([C@@H](C)Oc2cc(F)ccc2Nc2ncnc3cc(N=S4(=O)CCN(C)CC4)cc(C)c23)on1 [Example 7.001] | 1 | 98 | –
7 | Cc1cc(N=S(C)(C)=O)cc2ncnc(Nc3ccc(F)cc3OCC3CCOCC3)c12 [Example 3.045] | 10 | 78 | –
8 | Cc1cc(N=S(C)(C)=O)cc2ncnc(Nc3ccc(F)cc3OCc3ccon3)c12 [Example 3.039] | 1 | – | 77
9 | C[C@@H](Oc1cc(F)ccc1Nc1ncnc2cc(N=S3(=O)CCCC3)cc(F)c12)C(=O)NCC(F)(F)F [Example 3.047] | 1 | 96 | –
10 | Cc1cc(N=S(C)(C)=O)cc2ncnc(Nc3ccc(F)cc3OC(C)C#N)c12 (stereo not drawn) [Example 7.005] | 3 | 93 | –
11 | O=S1(=Nc2cc(C(F)(F)F)c3c(Nc4ccc(F)cc4OC(CF)CF)ncnc3c2)CCOCC1 [Example 1.021] | 1 | 52 | –
12 | Cc1cc(N=S(C)(C)=O)cc2ncnc(Nc3ccc(F)cc3OCC3CCOC3)c12 (stereo not drawn) [Example 3.048] | 11 | 88 | –
13 | Cc1cc(N=S2(=O)CCCC2)cc2ncnc(Nc3ccc(F)cc3O[C@H](C)C(=O)N3CCC(=O)CC3)c12 [Example 4.054] | 9 | 95 | –
14 | Cc1cc(N=S2(=O)CCCC2)cc2ncnc(Nc3ccc(F)cc3O[C@H](C)C(=O)N(C)Cc3ccccc3)c12 [Example 4.017] | 9 | 73 | –
15 | CC(Oc1cc(F)ccc1Nc1ncnc2cc(N=S(C)(C)=O)cc(F)c12)C(F)(F)F (stereo not drawn) [Example 1.020] | 7 | 80 | –
16 | CC(=O)N1CCS(=O)(=Nc2cc(C)c3c(Nc4ccc(F)cc4O[C@H](C)c4cc(C)no4)ncnc3c2)CC1 [Example 5.005] | 2 | 95 | –
17 | Cc1cc(N=S(C)(C)=O)cc2ncnc(Nc3ccc(F)cc3OCC(=O)N(C)C)c12 [Example 3.026] | 4 | 53 | –
18 | C[C@H](NC(=O)[C@@H](C)Oc1cc(F)ccc1Nc1ncnc2cc(N=S(C)(C)=O)cc(F)c12)C(F)(F)F [Example 4.118] | 3 | 99 | 21
19 | Cc1cc([C@@H](C)Oc2cc(F)ccc2Nc2ncnc3cc(N=S4(=O)CCCC4)cc(C)c23)on1 [Example 2.012] | 28 | 102 | –
20 | Cc1cc(N=S(C)(C)=O)cc2ncnc(Nc3ccc(F)cc3O[C@H](C)C(=O)N3CCC(O)C3)c12 (stereo partly drawn) [Example 4.005] | 28 | 74 | –
21 | Cc1cc(N=S2(=O)CCCC2)cc2ncnc(Nc3ccc(F)cc3O[C@H](C)C(=O)NCC(F)(F)F)c12 [Example 4.074] | 1 | – | 38
22 | Cc1cc(N=S(C)(C)=O)cc2ncnc(Nc3ccc(F)cc3O[C@H](C)C(=O)N(C)C3CCCC3)c12 [Example 4.053] | 16 | 80 | –
23 | Cc1cc(N=S(C)(C)=O)cc2ncnc(Nc3ccc(F)cc3OC(C)c3ccccn3)c12 (stereo not drawn) [Example 3.021] | 2 | 86 | –
24 | Cc1cc(N=S(C)(C)=O)cc2ncnc(Nc3ccc(F)cc3O[C@H](C)C(=O)N3CCN(C)CC3)c12 [Example 4.056] | 25 | 74 | –

Row | SMILES | IC50 (MNK2a) [nM] | inhibition at 1 µM (MNK1) [%] | IC50 (MNK1) [nM]
25 | Cc1cc(N=S(C)(C)=O)cc2ncnc(Nc3ccc(F)cc3O[C@H](C)C(=O)N=S(C)(C)=O)c12 [Example 4.022] | 10 | 85 | –
26 | Cc1cc(N=S2(=O)CCCC2)cc2ncnc(Nc3ccc(F)cc3OC(C)C#N)c12 (stereo not drawn) [Example 7.008] | 3 | 99 | –
27 | Cc1cc(N=S2(=O)CCCC2)cc2ncnc(Nc3ccc(F)cc3O[C@H](C)C(=O)N3CCCCC3)c12 [Example 4.067] | 3 | 97 | –
28 | Cc1cc(N=S(C)(C)=O)cc2ncnc(Nc3ccc(F)cc3OC(C)CF)c12 (stereo not drawn) [Example 1.015] | 54 | 100 | –
29 | CC#CCNC(=O)[C@@H](C)Oc1cc(F)ccc1Nc1ncnc2cc(N=S3(=O)CCCC3)cc(C)c12 [Example 4.044] | 3 | 96 | –
30 | CCOC(=O)[C@H](C)Oc1cc(F)ccc1Nc1ncnc2cc(N=S(C)(C)=O)cc(C)c12 [Example 3.032] | 16 | 26 | –
31 | CCC(=O)NC[C@@H](C)Oc1cc(F)ccc1Nc1ncnc2cc(N=S(C)(C)=O)cc(C)c12 [Example 5.012] | 56 | 61 | –
32 | Cc1cc(N=S2(=O)CCCC2)cc2ncnc(Nc3ccc(F)cc3OCc3ccccc3)c12 [Example 2.004] | 6 | 75 | –
33 | Cc1cc(N=S(C)(C)=O)cc2ncnc(Nc3ccc(F)cc3O[C@H](C)C(=O)NC(C(F)(F)F)C(F)(F)F)c12 [Example 3.054] | 1 | 58 | 51
34 | COCC(C)Oc1cc(F)ccc1Nc1ncnc2cc(N=S(C)(C)=O)cc(C)c12 (stereo not drawn) [Example 3.050] | 32 | 87 | –
35 | Cc1cc(N=S2(=O)CCCC2)cc2ncnc(Nc3ccc(F)cc3O[C@H](C)C(N)=O)c12 [Example 4.047] | 5 | 86 | –
36 | C[C@@H](Oc1cc(F)ccc1Nc1ncnc2cc(N=S(C)(C)=O)cc(Cl)c12)C(F)(F)F [Example 1.003] | 1 | 95 | –
37 | Cc1cc(N=S(C)(C)=O)cc2ncnc(Nc3ccc(F)cc3O[C@H](C)C(=O)N(C)CCO)c12 [Example 4.061] | 13 | 70 | –
38 | COCCN(C)C(=O)[C@@H](C)Oc1cc(F)ccc1Nc1ncnc2cc(N=S3(=O)CCCC3)cc(C)c12 [Example 4.041] | 7 | 82 | –
39 | Cc1cc(N=S2(=O)CCCC2)cc2ncnc(Nc3ccc(F)cc3O[C@H](C)C(=O)N[C@H]3CCOC3)c12 [Example 4.057] | 2 | 102 | –
40 | Cc1cc(N=S2(=O)CCCC2)cc2ncnc(Nc3ccc(F)cc3O[C@H](C)C(=O)NC(C)C)c12 [Example 4.042] | 1 | 97 | –
41 | Cc1cc(N=S(C)(C)=O)cc2ncnc(Nc3ccc(F)cc3O[C@H](C)C(=O)N(C)C)c12 [Example 4.002] | 5 | 54 | –
42 | Cc1cc(N=S(C)(C)=O)cc2ncnc(Nc3ccc(F)cc3OC(C)c3ccncc3)c12 (stereo not drawn) [Example 3.046] | 2 | 97 | –
43 | C#CCNC(=O)[C@@H](C)Oc1cc(F)ccc1Nc1ncnc2cc(N=S3(=O)CCCC3)cc(C)c12 [Example 4.027] | 1 | 99 | –
44 | Cc1cc(N=S(C)(C)=O)cc2ncnc(Nc3ccc(F)cc3OC(CF)CF)c12 [Example 3.001] | 2 | – | 60
45 | Cc1cc(N=S(C)(C)=O)cc2ncnc(Nc3ccc(F)cc3OCC3(C(F)(F)F)CC3)c12 [Example 3.027] | 2 | 98 | –
46 | Cc1cc(N=S(C)(C)=O)cc2ncnc(Nc3ccc(F)cc3O[C@H](C)CNC(=O)C(F)(F)F)c12 [Example 5.010] | 28 | 62 | –
47 | Cc1cc(N=S2(=O)CCCC2)cc2ncnc(Nc3ccc(F)cc3O[C@H](C)C(=O)N(C)CCO)c12 [Example 4.028] | 4 | 86 | –
